{"source": "patent US20070212772A1", "about": "“RHIZOBIUM LEGUMINOSARUM STRAIN AND USE THEREOF AS PLANT INOCULANT” (priority 2005, published 2007)", "tested_on": "pea (cultivar 'Mozart')", "assay": "Growth chamber pot test of Rhizobium strains on pea, biomass and nitrogen in plant tissue (Experiment 1)", "assay_type": "in vivo", "set-up": "Total Nitrogen per Shoot: unit not given here", "conditions": "35 days; for % Nitrogen: shoot tissue", "experimental": "• 1) To evaluate eight previously untested Rhizobium strains for their ability to enhance biomass accumulation and nitrogen in legume plant tissue. These eight strains are evaluated against known strains PBI #108 and PBI#101. Note that PBI #108 is a commercial strain of Rhizobium leguminosarum that can be obtained from the Australian Legume Inoculants Research Unit of the New South Wales Agriculture Horticultural Research & Advisory Station, Locked Bag 26, Gosford, New South Wales, 2250, Australia under the deposit number ALIRU SU303. PBI #101 is a strain available from the USDA under deposit number 2449. Experimental Design: Factorial Design: 2 Soil Types (Aberdeen soil, Kyle soil) • 1 Pea seed Cultivar (‘Mozart’) • 12 Seed Treatments (Uninoculated, Nitrogen, Eight untested strains, PBI #108, PBI #101) • Randomized Block. Strain Selection Criteria: • 1) Collected field soil was sifted through a ¼ inch screen to remove any lumps of soil, roots, other plant material, sticks, etc. The soil was then spread out to dry for a period of one week and then placed into plastic bins until needed. • 2) Pots (4-½ inch×5 inch deep) were then labeled according to treatment. A sterile square pieces of spun polyester (black landscape fabric) was then placed into the bottom of each of the pots to prevent the sand/soil mixture from draining out through the pots drainage holes. • 3) A 50% mixture of Kyle soil/silica sand or 50% Aberdeen soil/silica sand (Unimum Industries—industrial quartz) was used as a potting media. • 4) After filling each pot with the sand/soil mixture each pot was placed into a large plastic Ziploc™ bag. • 5) One day before seeding each pot was watered with 150 ml of tap water (non-sterile) and the bags were sealed until seeded. • 6) On the day of seeding 5.5 kg of pea seed—cultivar ‘Mozart’—was divided up into eleven 500 gram amounts and surfaced sterilized via the following method: • a) Place 500 grams of seed into a 2 liter glass Erlenmeyer flask • b) Cover the seeds with 95% Ethanol, let stand 60 seconds then drain. • c) Add a fresh preparation of a 50% bleach solution (1000 mls into 1000 mls water-2.6% NaOCl active), add seed, shake and let stand 5 minutes, then drain. • d) Rinse with 4 changes of R.O. water (non-sterile) followed by one rinse with sterile R.O. water. • 7) After surface sterilization each 500 g amount of seed was spread into an aluminum foil pan lined with sterile paper towel and blotted dry and then transferred into clean large Ziploc™ bags. • 8) After inoculation uninoculated and inoculated pea seeds were planted. Five pea seeds were placed into each pot 2 inches below the surface. Spoons and forceps used to plant the seed were washed and dried thoroughly between treatments. 9) The bags were then sealed and placed into a growth chamber that was set for the following conditions: [table] • 10) Each pot was placed into a plastic bin in a randomized block design (two bins contained one pot of each of the 24 treatments). A total of 20 bins were used to hold all of the treatments. Three times a week (Monday's, Wednesdays and Fridays) each plastic bin was moved one bin position to the right. This was done to ensure differences in light intensity/quality or temperature were consistent for each of the treatments inside the growth chamber. • 11) Bags were kept fully closed until 50% emergence was observed, then fully opened. • 12) Plants were checked daily and watered as required using tap water. • 13) After 35 days plants were photographed (digital image file) and then harvested.", "data": [{"substance": "Nitrogen", "values": [{"measurement": "Shoot dry weights (mean)", "setting": "Aberdeen soil", "value": 0.45, "unit": "grams per shoot"}, {"measurement": "Total Nitrogen per Shoot", "setting": "Aberdeen soil", "value": 0.0144}, {"measurement": "% Nitrogen", "setting": "Aberdeen soil", "value": 3.18, "unit": "%"}, {"measurement": "Shoot dry weights (mean)", "setting": "Kyle soil", "value": 0.46, "unit": "grams per shoot"}, {"measurement": "Total Nitrogen per Shoot", "setting": "Kyle soil", "value": 0.0131}, {"measurement": "Visual Assessment of Plant Color, Ranking Based on Color", "setting": "Kyle soil, ranked from darkest green (1) to yellow/green (12)", "value": 1}, {"measurement": "% Nitrogen", "setting": "Kyle soil", "value": 2.80, "unit": "%"}]}]}
